From the kinase profiling compilation of Christmann-Franck et al. (2016)

How the values were obtained:
Assay in all cases: KINOMEscan competition binding
Conditions in all cases: compound 10.0 µM
AAK1 (human) = AAK1 (human) (UniProt Q2M2I8)
[1] = system: ABL1 (human), P00519 [T315I]
ACVR2B (human) = ACVR2B (human) (UniProt Q13705)
AKT1 (human) = AKT1 (human) (UniProt P31749)
AURKC (human) = AURKC (human) (UniProt Q9UQB9)
BMPR1A (human) = BMPR1A (human) (UniProt P36894)
BRSK2 (human) = BRSK2 (human) (UniProt Q8IWQ3)
CAMK2A (human) = CAMK2A (human) (UniProt Q9UQM7)
CAMKK2 (human) = CAMKK2 (human) (UniProt Q96RR4)
CDK17 (human) = CDK17 (human) (UniProt Q00537)
CLK2 (human) = CLK2 (human) (UniProt P49760)
CSNK1D (human) = CSNK1D (human) (UniProt P48730)
CSNK1G1 (human) = CSNK1G1 (human) (UniProt Q9HCP0)
DDR1 (human) = DDR1 (human) (UniProt Q08345)
DYRK1B (human) = DYRK1B (human) (UniProt Q9Y463)
[2] = system: EGFR (human), P00533 [P753S; 747-752 del]
EPHA1 (human) = EPHA1 (human) (UniProt P21709)
EPHA3 (human) = EPHA3 (human) (UniProt P29320)
[3] = system: FLT3 (human), P36888 [D835Y]
GSK3A (human) = GSK3A (human) (UniProt P49840)
IGF1R (human) = IGF1R (human) (UniProt P08069)
LATS1 (human) = LATS1 (human) (UniProt O95835)
MAP3K7 (human) = MAP3K7 (human) (UniProt O43318)
MARK2 (human) = MARK2 (human) (UniProt Q7KZI7)
MINK1 (human) = MINK1 (human) (UniProt Q8N4C8)
PDPK1 (human) = PDPK1 (human) (UniProt O15530)
PIK3CA (human) = PIK3CA (human) (UniProt P42336)
PIM3 (human) = PIM3 (human) (UniProt Q86V86)
PKN1 (human) = PKN1 (human) (UniProt Q16512)
PLK4 (human) = PLK4 (human) (UniProt O00444)
PTK2 (human) = PTK2 (human) (UniProt Q05397)
RAF1 (human) = RAF1 (human) (UniProt P04049)
RIPK2 (human) = RIPK2 (human) (UniProt O43353)
RPS6KA6 KD2 (human) = RPS6KA6 KD2 (human) (UniProt Q9UK32)
STK16 (human) = STK16 (human) (UniProt O75716)
STK3 (human) = STK3 (human) (UniProt Q13188)
STK32B (human) = STK32B (human) (UniProt Q9NY57)
TEK (human) = TEK (human) (UniProt Q02763)
TLK2 (human) = TLK2 (human) (UniProt Q86UE8)
TNK1 (human) = TNK1 (human) (UniProt Q13470)
[4] = target: TYK2 JH1 catalytic (human) (UniProt P29597)
ULK2 (human) = ULK2 (human) (UniProt Q8IYT8)

Chain of MAP3K7 (human) (O43318 whole entry, looked up): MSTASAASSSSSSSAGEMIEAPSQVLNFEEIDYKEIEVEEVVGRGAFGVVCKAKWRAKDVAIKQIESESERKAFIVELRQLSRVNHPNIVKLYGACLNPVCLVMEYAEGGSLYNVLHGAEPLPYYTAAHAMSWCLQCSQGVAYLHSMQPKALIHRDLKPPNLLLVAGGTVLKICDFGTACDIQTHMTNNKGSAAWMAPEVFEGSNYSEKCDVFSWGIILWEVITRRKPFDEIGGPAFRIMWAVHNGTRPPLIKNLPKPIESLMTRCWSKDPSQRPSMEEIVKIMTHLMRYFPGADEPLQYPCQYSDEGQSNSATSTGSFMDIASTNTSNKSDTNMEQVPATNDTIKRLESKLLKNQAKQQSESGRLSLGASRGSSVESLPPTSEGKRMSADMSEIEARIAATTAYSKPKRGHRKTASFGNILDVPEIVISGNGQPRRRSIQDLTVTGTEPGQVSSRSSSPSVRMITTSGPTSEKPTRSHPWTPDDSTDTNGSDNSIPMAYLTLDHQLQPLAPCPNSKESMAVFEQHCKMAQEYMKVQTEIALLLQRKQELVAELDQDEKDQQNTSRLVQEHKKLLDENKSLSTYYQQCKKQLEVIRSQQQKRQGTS
Chain of RPS6KA6 KD2 (human) (Q9UK32 whole entry, looked up): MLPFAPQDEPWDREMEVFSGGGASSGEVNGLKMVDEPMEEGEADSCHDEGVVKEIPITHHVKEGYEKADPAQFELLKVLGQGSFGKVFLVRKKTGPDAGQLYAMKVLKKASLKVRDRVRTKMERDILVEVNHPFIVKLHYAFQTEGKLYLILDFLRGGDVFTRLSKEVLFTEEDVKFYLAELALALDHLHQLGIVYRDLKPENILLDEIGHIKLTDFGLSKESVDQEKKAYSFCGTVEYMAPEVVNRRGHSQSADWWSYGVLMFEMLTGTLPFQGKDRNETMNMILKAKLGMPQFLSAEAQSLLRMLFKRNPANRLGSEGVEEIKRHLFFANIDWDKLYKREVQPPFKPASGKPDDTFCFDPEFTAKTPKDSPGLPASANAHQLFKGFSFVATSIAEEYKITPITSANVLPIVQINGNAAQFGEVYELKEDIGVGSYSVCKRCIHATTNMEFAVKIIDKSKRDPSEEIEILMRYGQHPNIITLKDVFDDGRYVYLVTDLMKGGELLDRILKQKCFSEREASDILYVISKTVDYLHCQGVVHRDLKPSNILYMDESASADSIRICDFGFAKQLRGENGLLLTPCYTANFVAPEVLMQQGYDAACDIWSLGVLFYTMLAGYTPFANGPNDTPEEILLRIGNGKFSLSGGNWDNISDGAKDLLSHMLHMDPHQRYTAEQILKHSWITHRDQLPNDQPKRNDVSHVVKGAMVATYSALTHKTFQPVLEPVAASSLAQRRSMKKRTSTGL
Chain of TYK2 JH1 catalytic (human) (P29597 whole entry, looked up): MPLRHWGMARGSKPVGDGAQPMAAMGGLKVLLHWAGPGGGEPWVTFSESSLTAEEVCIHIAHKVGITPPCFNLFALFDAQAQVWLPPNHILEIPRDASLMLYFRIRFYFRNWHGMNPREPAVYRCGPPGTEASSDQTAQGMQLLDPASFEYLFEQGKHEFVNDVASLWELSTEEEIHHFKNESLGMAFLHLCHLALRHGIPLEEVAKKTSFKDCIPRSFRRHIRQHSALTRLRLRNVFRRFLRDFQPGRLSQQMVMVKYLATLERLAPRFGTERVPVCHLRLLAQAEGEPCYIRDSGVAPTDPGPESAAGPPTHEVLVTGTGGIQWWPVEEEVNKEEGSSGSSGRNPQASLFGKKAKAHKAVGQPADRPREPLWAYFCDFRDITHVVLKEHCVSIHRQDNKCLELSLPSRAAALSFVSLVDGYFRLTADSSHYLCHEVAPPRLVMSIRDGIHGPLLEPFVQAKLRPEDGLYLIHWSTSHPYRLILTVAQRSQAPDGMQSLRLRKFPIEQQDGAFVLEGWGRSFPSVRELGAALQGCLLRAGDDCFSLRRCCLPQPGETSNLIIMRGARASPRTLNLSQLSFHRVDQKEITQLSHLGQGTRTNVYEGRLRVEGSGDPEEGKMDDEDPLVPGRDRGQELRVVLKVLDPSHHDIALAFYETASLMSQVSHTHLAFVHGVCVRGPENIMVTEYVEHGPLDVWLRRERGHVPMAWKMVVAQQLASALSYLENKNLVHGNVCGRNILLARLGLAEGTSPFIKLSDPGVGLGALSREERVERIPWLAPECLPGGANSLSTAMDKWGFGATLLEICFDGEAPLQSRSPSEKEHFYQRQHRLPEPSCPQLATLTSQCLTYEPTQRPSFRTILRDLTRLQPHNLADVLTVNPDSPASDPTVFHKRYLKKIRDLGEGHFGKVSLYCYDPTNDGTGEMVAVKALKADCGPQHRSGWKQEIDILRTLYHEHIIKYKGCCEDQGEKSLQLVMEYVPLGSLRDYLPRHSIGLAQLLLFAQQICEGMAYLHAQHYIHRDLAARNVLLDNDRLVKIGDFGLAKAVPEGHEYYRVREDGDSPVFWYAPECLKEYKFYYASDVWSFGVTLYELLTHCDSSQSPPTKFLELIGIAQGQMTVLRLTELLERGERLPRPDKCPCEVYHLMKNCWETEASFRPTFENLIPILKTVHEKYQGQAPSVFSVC
Chain of STK32B (human) (Q9NY57 whole entry, looked up): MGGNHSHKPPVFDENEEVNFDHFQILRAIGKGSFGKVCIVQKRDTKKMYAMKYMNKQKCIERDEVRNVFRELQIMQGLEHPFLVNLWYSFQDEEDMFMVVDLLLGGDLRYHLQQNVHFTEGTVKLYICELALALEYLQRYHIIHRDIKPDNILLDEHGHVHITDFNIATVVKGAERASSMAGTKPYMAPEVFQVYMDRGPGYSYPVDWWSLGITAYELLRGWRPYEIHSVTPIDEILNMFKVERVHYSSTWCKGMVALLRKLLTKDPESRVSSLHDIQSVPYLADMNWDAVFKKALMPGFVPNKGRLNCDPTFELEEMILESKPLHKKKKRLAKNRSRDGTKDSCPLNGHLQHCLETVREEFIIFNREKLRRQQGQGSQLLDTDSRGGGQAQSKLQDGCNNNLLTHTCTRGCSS
Chain of TNK1 (human) (Q13470 whole entry, looked up): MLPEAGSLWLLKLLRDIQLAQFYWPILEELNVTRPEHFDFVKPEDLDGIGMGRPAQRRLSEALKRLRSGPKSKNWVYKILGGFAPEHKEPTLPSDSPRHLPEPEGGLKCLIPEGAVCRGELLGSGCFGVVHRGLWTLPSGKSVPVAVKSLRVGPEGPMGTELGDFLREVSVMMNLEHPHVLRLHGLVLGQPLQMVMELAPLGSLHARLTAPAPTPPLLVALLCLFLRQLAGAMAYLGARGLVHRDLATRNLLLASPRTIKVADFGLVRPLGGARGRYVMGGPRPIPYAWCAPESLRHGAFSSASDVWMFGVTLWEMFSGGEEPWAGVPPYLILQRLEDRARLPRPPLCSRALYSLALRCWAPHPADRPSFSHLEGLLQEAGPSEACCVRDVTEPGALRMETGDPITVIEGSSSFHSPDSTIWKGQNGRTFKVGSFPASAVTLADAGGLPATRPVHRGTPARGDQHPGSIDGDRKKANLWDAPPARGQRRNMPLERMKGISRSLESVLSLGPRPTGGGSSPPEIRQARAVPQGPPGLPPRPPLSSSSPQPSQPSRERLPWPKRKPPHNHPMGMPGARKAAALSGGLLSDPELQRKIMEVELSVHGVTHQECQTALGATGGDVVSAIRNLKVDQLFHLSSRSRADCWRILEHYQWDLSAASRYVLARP
Chain of PLK4 (human) (O00444 whole entry, looked up): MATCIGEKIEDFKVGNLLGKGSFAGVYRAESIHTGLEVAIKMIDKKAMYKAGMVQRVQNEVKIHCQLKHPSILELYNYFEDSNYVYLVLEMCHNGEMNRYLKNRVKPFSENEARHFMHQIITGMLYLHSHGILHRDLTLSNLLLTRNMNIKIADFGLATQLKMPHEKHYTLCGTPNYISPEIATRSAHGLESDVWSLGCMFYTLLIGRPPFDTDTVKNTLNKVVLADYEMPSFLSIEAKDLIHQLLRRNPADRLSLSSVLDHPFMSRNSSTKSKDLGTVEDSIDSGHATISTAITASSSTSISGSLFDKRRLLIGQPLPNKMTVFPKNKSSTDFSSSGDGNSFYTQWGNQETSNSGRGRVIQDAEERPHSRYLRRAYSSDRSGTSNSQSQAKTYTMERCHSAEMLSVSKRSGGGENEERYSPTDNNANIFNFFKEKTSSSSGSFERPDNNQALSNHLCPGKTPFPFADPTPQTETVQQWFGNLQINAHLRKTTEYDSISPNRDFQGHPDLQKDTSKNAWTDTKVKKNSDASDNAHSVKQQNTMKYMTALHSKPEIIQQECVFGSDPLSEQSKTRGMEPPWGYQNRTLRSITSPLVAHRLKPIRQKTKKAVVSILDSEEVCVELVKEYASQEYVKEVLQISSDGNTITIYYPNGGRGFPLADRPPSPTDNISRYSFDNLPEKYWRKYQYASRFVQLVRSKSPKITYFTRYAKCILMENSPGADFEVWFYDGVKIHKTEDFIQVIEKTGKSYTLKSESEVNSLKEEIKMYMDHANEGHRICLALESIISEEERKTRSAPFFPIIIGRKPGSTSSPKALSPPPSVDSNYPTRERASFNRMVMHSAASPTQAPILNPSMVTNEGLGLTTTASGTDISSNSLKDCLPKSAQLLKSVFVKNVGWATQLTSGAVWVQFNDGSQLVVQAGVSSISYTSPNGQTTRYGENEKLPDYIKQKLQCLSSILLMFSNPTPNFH

CN1CCN(c2ccc(C(=O)Nc3ncc4c(n3)N(C)c3ccccc3C(=O)N4C)cc2)CC1
kinase still bound, per cent of control (AAK1 (human)): 100%
kinase still bound, per cent of control [1]: 85%
kinase still bound, per cent of control (ACVR2B (human)): 100%
kinase still bound, per cent of control (AKT1 (human)): 100%
kinase still bound, per cent of control (AURKC (human)): 99%
kinase still bound, per cent of control (BMPR1A (human)): 100%
kinase still bound, per cent of control (BRSK2 (human)): 100%
kinase still bound, per cent of control (CAMK2A (human)): 100%
kinase still bound, per cent of control (CAMKK2 (human)): 97%
kinase still bound, per cent of control (CDK17 (human)): 100%
kinase still bound, per cent of control (CLK2 (human)): 96%
kinase still bound, per cent of control (CSNK1D (human)): 85%
kinase still bound, per cent of control (CSNK1G1 (human)): 100%
kinase still bound, per cent of control (DDR1 (human)): 100%
kinase still bound, per cent of control (DYRK1B (human)): 100%
kinase still bound, per cent of control [2]: 100%
kinase still bound, per cent of control (EPHA1 (human)): 100%
kinase still bound, per cent of control (EPHA3 (human)): 100%
kinase still bound, per cent of control [3]: 79%
kinase still bound, per cent of control (GSK3A (human)): 100%
kinase still bound, per cent of control (IGF1R (human)): 100%
kinase still bound, per cent of control (LATS1 (human)): 88%
kinase still bound, per cent of control (MAP3K7 (human)): 89%
kinase still bound, per cent of control (MARK2 (human)): 100%
kinase still bound, per cent of control (MINK1 (human)): 100%
kinase still bound, per cent of control (PDPK1 (human)): 100%
kinase still bound, per cent of control (PIK3CA (human)): 100%
kinase still bound, per cent of control (PIM3 (human)): 100%
kinase still bound, per cent of control (PKN1 (human)): 100%
kinase still bound, per cent of control (PLK4 (human)): 84%
kinase still bound, per cent of control (PTK2 (human)): 100%
kinase still bound, per cent of control (RAF1 (human)): 100%
kinase still bound, per cent of control (RIPK2 (human)): 100%
kinase still bound, per cent of control (RPS6KA6 KD2 (human)): 100%
kinase still bound, per cent of control (STK16 (human)): 85%
kinase still bound, per cent of control (STK3 (human)): 82%
kinase still bound, per cent of control (STK32B (human)): 100%
kinase still bound, per cent of control (TEK (human)): 100%
kinase still bound, per cent of control (TLK2 (human)): 100%
kinase still bound, per cent of control (TNK1 (human)): 92%
kinase still bound, per cent of control [4]: 44%
kinase still bound, per cent of control (ULK2 (human)): 89%
